From US9771378B2 (Denali Therapeutics, Inc., priority 2014, dated 2017) come the findings set out here.

pIC50: −log10 of the molar value.

The test system of this assay is Aβ42 (human neuroglioma H4 cells expressing human wild type APP751). Nature of the assay: In vitro cell screening assay with sandwich ELISA quantification of Aβ42 peptide. Type of assay: cell-based. Conditions: H4 cells stably expressing human wild type APP751; Pro293 chemically defined medium; compounds 0.003-10 μM; incubated overnight (16-18 h); supernatant Aβ42 by sandwich ELISA; normalized to DMSO and DAPT; read-out: Aβ42 H4 Prot Fre IC50. The procedure:
Human neuroglioma H4 cells were transfected with a pcDNA3.1 plasmid expressing human wild type APP751 cDNA and a stable cell line was generated using G418 selection. Cells are plated at 15,000 cells/well in Costar 96-well plates and placed at 37° C. and 5% CO2. Six hours after plating, cells are washed three times with Pro293™ chemically defined medium, followed by addition of compounds (0.003-10 μM, final DMSO concentration of 0.33%). Plates were incubated overnight (16-18 h) and supernatant was removed for quantification of AP peptides by sandwich ELISA. Cytotoxicity was evaluated using Cell-Titer 96W AQueous One Solution Cell Proliferation Assay according to the manufacturer's protocol.
ELISA Measurements of Aβ Peptides
Aβ peptide levels were quantified by sandwich ELISA. 96-well plates are coated with C-terminal specific Aβ antibodies recognizing either Aβ37, Aβ38, Aβ40, Aβ42, Aβ43 or a N-terminal specific Aβ antibody to detect Aβ 1-x. Plates are then blocked overnight at 4° C. with 1% bovine serum albumin (BSA) in PBS-T. Plates are washed and 100 μl of cultured cell supernatant or synthetic Aβ peptide standards and a detection antibody (4G8-HRP) are applied to the blocked plate and incubated overnight at 4° C. The next day, wells are washed before the addition […] of detection substrate (TMB peroxidase). Plates are then read for absorbance at 450 nm on a Molecular Devices SpectraMax M5e Microplate Reader.
IC50 values were calculated from values reported as percent of DMSO controls using nonlinear regression, based on a sigmoidal dose-response (variable slope) model. GraphPAD software from Prism used for calculation.
In general terms: In an ELISA, binding on a coated surface is turned into a signal by an enzyme label.
Usually pIC50 stands for the negative decadic logarithm of the IC50, by convention in mol/L. With `COc1nc(Nc2ncc3c(n2)N(C)C(c2cc(F)cc(F)c2)CO3)ccc1-c1ccnc(C)n1` (single isomer, unassigned; (+)) [Example 183A], the pIC50 was under 5.52.
For the compound `COc1cc(Nc2ncc3c(n2)N(C)C(Cc2ccccc2)CO3)ccc1-n1cnc(C)c1` (single isomer, unassigned; (+)) [Example 47A], the negative-log IC50 (pIC50) is 7.64.
In the case of `COc1cc(Nc2ncc3c(n2)N(C)C(c2cc(F)cc(F)c2)CO3)ccc1-n1cnc(C)n1` (single isomer, unassigned; (+)) [Example 244A], the pIC50 is 7.64.
Turning to `COc1cc(Nc2ncc3c(n2)N(C)C(c2ccc(F)cc2C)CO3)ccc1-n1cnc(C)c1` (single isomer, unassigned; (+)) [Example 117B], the pIC50 was 7.66.
As to `Cc1cc(-c2ccc(Nc3ncc4c(n3)N(C)C(c3cc(F)c(F)c(F)c3)CO4)cc2)ccn1` (single isomer, unassigned; (-)) [Example 37B], the pIC50 is 5.81.
With `COc1cc(Nc2ncc3c(n2)N(C)C(C2CCC(F)(F)CC2)CO3)ccc1-n1cnc(C)c1` (single isomer, unassigned; (+)) [Example 216B], the pIC50 is 7.48.
As for `COc1cc(Nc2ncc3c(n2)N(C)[C@@H](C2CCC2)CO3)ccc1-n1cnc(C)c1` [Example 227], the negative-log IC50 (pIC50) was 7.72.
Consider `COc1cc(Nc2ncc3c(n2)N(C)C(c2ccccc2Cl)CO3)ccc1-n1cnc(C)c1` (single isomer, unassigned; (+)) [Example 51B], for which the pIC50 was 7.24.
As for `COc1cc(Nc2ncc3c(n2)N(C)C(c2cc(F)c(F)c(F)c2)CO3)cnc1-n1cnc(C)c1` (single isomer, unassigned; (-)) [Example 182B], the negative logarithm of the IC50 (pIC50) is 6.75.
For `Cc1cn(-c2ccc(Nc3ncc4c(n3)N(C)C(c3ccc(Cl)cc3Cl)CO4)cc2F)cn1` (single isomer, unassigned; (-)) [Example 96B], the negative logarithm of the IC50 (pIC50) is 6.06.
As for `COc1cc(Nc2ncc3c(n2)N(C)C(c2ccccc2Cl)CO3)ccc1-n1cnc(C)c1` (single isomer, unassigned; (-)) [Example 51A], the negative-log IC50 (pIC50) is 7.55.
Turning to `Cc1cn(-c2ccc(Nc3ncc4c(n3)N(C)C(C)CO4)cc2F)cn1` (single isomer, unassigned; (-)) [Example 108A], the negative-log IC50 (pIC50) was 6.25.
`Cc1cn(-c2ccc(Nc3ncc4c(n3)N(C)C(c3ccccc3)CO4)cc2)cn1` (racemic) [Example 26]: the negative logarithm of the IC50 (pIC50) was 6.92.
Consider `COC[C@H]1COc2cnc(Nc3ccc(-n4cnc(C)c4)c(OC)c3)nc2N1C` [Example 111], for which the negative-log IC50 (pIC50) is 6.92.
With `COc1cc(Nc2ncc3c(n2)N(C)C(c2cc(F)c(F)c(F)c2)CO3)ccc1-c1ccnc(C)c1` (single isomer, unassigned; (-)) [Example 39B], the pIC50 is 6.01.
Turning to `COc1cc(Nc2ncc3c(n2)N(C)C(c2ccc(F)cc2Cl)CO3)ccc1-n1cnc(C)c1` (single isomer, unassigned; (+)) [Example 93B], the pIC50 is 7.49.
Turning to `COc1cc(Nc2ncc3c(n2)N(C)C2(CO3)CC(F)(F)C2)cnc1-n1cnc(C)c1` [Example 278], the negative-log IC50 (pIC50) is 7.04.
For the compound `COc1cc(Nc2ncc3c(n2)N(C)C(C2CCOCC2)CO3)ccc1-n1cnc(C)c1` (single isomer, unassigned; (+)) [Example 114B], the negative logarithm of the IC50 (pIC50) is 7.11.
Regarding `Cc1cn(-c2ccc(Nc3ncc4c(n3)N(C)C(c3ccc(Cl)cc3C(F)(F)F)CO4)cc2F)cn1` (single isomer, unassigned; (+)) [Example 106A], the pIC50 is 6.81.
The figure for `Cc1cn(-c2ncc(Nc3ncc4c(n3)N(C)C(c3cc(F)cc(F)c3)CO4)cc2Cl)cn1` (single isomer, unassigned; (-)) [Example 210B] is 5.63; for `COc1cc(Nc2ncc3c(n2)N(C)C(C2CCC(F)(F)CC2)CO3)cnc1-c1cnn(C)c1` (single isomer, unassigned; (+)) [Example 231A] it is 6.47.
As for `COc1cc(Nc2ncc3c(n2)N(C)C(C)CO3)cnc1-n1cnc(C)c1` (single isomer, unassigned; (+)) [Example 185A], the pIC50 is 6.62.
Turning to `COc1cc(Nc2ncc3c(n2)N(C)C2(CC2)CO3)cnc1-c1cnn(C)c1` [Example 268], the pIC50 was 5.56.
As to `Cc1cn(-c2ccc(Nc3ncc4c(n3)N(C)C(c3ccccc3)CO4)cc2)cn1` (single isomer, unassigned; (-)) [Example 26B], the pIC50 is 5.50.
Next, `Cc1cn(-c2ccc(Nc3ncc4c(n3)N(C)C(c3cc(F)c(F)c(F)c3)CO4)cc2F)cn1` (single isomer, unassigned; (-)) [Example 118B]: 5.87; `Cc1cn(-c2ccc(Nc3ncc4c(n3)N3CCOC[C@H]3CO4)cc2F)cn1` [Example 299]: under 5.52; `Cc1cc(-c2ccc(Nc3ncc4c(n3)N(C)C(c3ccc(F)cc3Cl)CO4)cc2F)ccn1` (single isomer, unassigned; (+)) [Example 102A]: 6.38.
As to `COc1cc(Nc2ncc3c(n2)N(C)C(C)CO3)ncc1-n1cnc(C)c1` (racemic) [Example 234], the pIC50 was 5.75.
The figure for `COc1ccc(C2COc3cnc(Nc4cnc(-n5cnc(C)c5)c(OC)c4)nc3N2C)c(C)c1` (single isomer, unassigned; (+)) [Example 215A] is 7.80; for `COc1cc(Nc2ncc3c(n2)N(C)C(C2CC(F)(F)C2)CO3)ccc1-n1cnc(C)c1` (single isomer, unassigned; (-)) [Example 212A] it is 6.46.
Turning to `COc1cc(Nc2ncc3c(n2)N(C)C(c2ccc(F)cc2Cl)CO3)ccc1-n1cnc(C)c1` (racemic) [Example 53], the pIC50 was 7.43.
Turning to `COc1nc(Nc2ncc3c(n2)N(C)C(c2ccccc2C)CO3)ccc1-n1cnc(C)c1` (single isomer, unassigned; (-)) [Example 180A], the negative logarithm of the IC50 (pIC50) is under 5.52.
As to `Cc1cn(-c2ccc(Nc3ncc4c(n3)N(C)C(c3ccccc3)CO4)cc2F)cn1` (single isomer, unassigned; (-)) [Example 25B], the pIC50 was 6.48.
In the case of `Cc1cc(-c2ccc(Nc3ncc4c(n3)N(C)C(c3ccccc3)CO4)cc2)ccn1` (single isomer, unassigned; (+)) [Example 24A], the negative logarithm of the IC50 (pIC50) is 7.17.
For the compound `COc1cc(Nc2ncc3c(n2)N(C)C(c2cc(Cl)ccc2C(F)(F)F)CO3)ccc1-n1cnc(C)c1` (single isomer, unassigned; (+)) [Example 165A], the negative logarithm of the IC50 (pIC50) is 7.05.
Next, `Cc1cn(-c2ccc(Nc3ncc4c(n3)N(C)C(c3ccccc3OC(F)(F)F)CO4)cc2F)cn1` (single isomer, unassigned; (+)) [Example 64A]: 6.40; `COc1cc(Nc2ncc3c(n2)N(C)C(c2cc(C(F)(F)F)ccc2Cl)CO3)ccc1-n1cnc(C)c1` (racemic) [Example 88]: 7.41; `COc1cc(Nc2ncc3c(n2)N(C)C(c2ccc(F)cc2F)CO3)cnc1-n1cnc(C)c1` (single isomer, unassigned; (-)) [Example 186B]: 6.48.
In the case of `CN1c2nc(Nc3ccc(C#N)cc3)ncc2OCC1c1cc(F)cc(F)c1` (single isomer, unassigned; (-)) [Example 233B, (−)-4-((7-(3,5-difluorophenyl)-8-methyl-7,8-dihydro-6H-pyrimido [5,4-b] [1, 4]oxazin-2-yl)amino) benzonitrile], the pIC50 is under 5.52.
For the compound `Cc1cn(-c2ccc(Nc3ncc4c(n3)N(C)C(c3ccccc3)CO4)cc2F)cn1` (single isomer, unassigned; (+)) [Example 25A], the pIC50 was 7.85.
`COc1cc(Nc2ncc3c(n2)N(C)C(c2ccc(F)cc2C)CO3)ccc1-n1cnc(C)c1` (racemic) [Example 54]: the pIC50 is 7.12.
Turning to `COc1cc(Nc2ncc3c(n2)N(C)C(c2ccc(F)cc2)CO3)ccc1-c1ccnc(C)c1` (single isomer, unassigned; (-)) [Example 61A], the negative-log IC50 (pIC50) was 6.00.
Turning to `COc1nc(Nc2ncc3c(n2)N(C)C(c2cc(F)c(F)c(F)c2)CO3)ccc1-n1cnc(C)c1` (single isomer, unassigned; (-)) [Example 188A], the negative logarithm of the IC50 (pIC50) was under 5.52.
As for `Cc1cn(-c2ccc(Nc3ncc4c(n3)N(C)C(c3cc(F)cc(F)c3)CO4)cc2C(F)F)cn1` (single isomer, unassigned; (-)) [Example 222B], the pIC50 was under 5.52.
For `COc1cc(Nc2ncc3c(n2)N2CCC(F)(F)C2CO3)cnc1-n1cnc(C)c1` (single isomer, unassigned; (+)) [Example 305A, (+)-7,7-difluoro-N-(5-methoxy-6-(4-methyl-1H-imidazol-1-yl)pyridin-3-yl)-6a, 7,8,9-tetrahydro-6H-pyrimido [5,4-b] pyrrolo [1,2-d] [1, 4] oxazin-2-amine], the negative logarithm of the IC50 (pIC50) was 6.88.
Consider `COc1cc(Nc2ncc3c(n2)N(C)C(c2cc(F)cc(F)c2)CO3)ccc1-n1cnc(C)c1` (racemic) [Example 30], for which the negative logarithm of the IC50 (pIC50) is 7.74.
Regarding `Cc1cn(-c2ccc(Nc3ncc4c(n3)N(C)C(C)CO4)cc2OC(F)(F)F)cn1` (single isomer, unassigned; (-)) [Example 213A], the pIC50 was under 5.52.
